In PubChem BioAssay AID330 (DTP/NCI, 2004):
“And” between values parts separate entries of the source, which are not always exact repeats. Equal entries are not always repeated. Toxic doses and inconclusive results are not listed.

System: P388 leukemia ip, CD2F1 mice, survival T/C
Experiment: NCI In Vivo Anticancer Drug Screen. Data for tumor model P388 Leukemia (intraperitoneal) in CD2F1 (CDF1) mice
Conditions: endpoint: median survival time, higher = longer survival
Procedure, shortened: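 Mice carrying the transplanted tumor received test compound or vehicle. Survival was recorded in each group, and the value is the treated-group measurement divided by that of the vehicle-treated control group.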

[1] = dose: 60.0 mg/kg/injection, schedule: Q01DX005 (ip), vehicle: saline with Tween-80
[2] = dose: 120.0 mg/kg/injection, schedule: Q01DX005 (ip), vehicle: saline with Tween-80
[3] = dose: 240.0 mg/kg/injection, schedule: Q01DX005 (ip), vehicle: saline with Tween-80
[4] = dose: 50.0 mg/kg/injection, schedule: Q01DX009 (ip), vehicle: Klucel (hydroxypropylcellulose) (HPC)
[5] = dose: 100.0 mg/kg/injection, schedule: Q01DX009 (ip), vehicle: Klucel (hydroxypropylcellulose) (HPC)
[6] = dose: 200.0 mg/kg/injection, schedule: Q01DX009 (ip), vehicle: Klucel (hydroxypropylcellulose) (HPC)
[7] = dose: 25.0 mg/kg/injection, schedule: Q04DX003 (ip), vehicle: saline with Tween-80
[8] = dose: 50.0 mg/kg/injection, schedule: Q01DX005 (ip), vehicle: Klucel (hydroxypropylcellulose) (HPC)
[9] = dose: 100.0 mg/kg/injection, schedule: Q01DX005 (ip), vehicle: Klucel (hydroxypropylcellulose) (HPC)
[10] = dose: 100.0 mg/kg/injection, schedule: Q04DX003 (ip), vehicle: saline with Tween-80
[11] = dose: 200.0 mg/kg/injection, schedule: Q01DX005 (ip), vehicle: Klucel (hydroxypropylcellulose) (HPC)
[12] = dose: 400.0 mg/kg/injection, schedule: Q04DX003 (ip), vehicle: saline with Tween-80
[13] = dose: 12.5 mg/kg/injection, schedule: Q01DX009 (ip), vehicle: saline with Tween-80
[14] = dose: 50.0 mg/kg/injection, schedule: Q01DX009 (ip), vehicle: saline with Tween-80

Q: Which T/C (dose: 3.13 mg/kg/injection, schedule: Q01DX009 (ip), vehicle: Klucel (hydroxypropylcellulose) (HPC)) does the source give for COc1ccc(-c2sc(/N=C/c3ccc(N(C)CCC#N)cc3)c(C#N)c2C)cc1OC here?
A: 89 % of control

Q: What about the T/C (dose: 6.25 mg/kg/injection, schedule: Q01DX009 (ip), vehicle: Klucel (hydroxypropylcellulose) (HPC)) of the same compound?
A: 91 % of control

Q: What about the T/C (dose: 12.5 mg/kg/injection, schedule: Q01DX009 (ip), vehicle: Klucel (hydroxypropylcellulose) (HPC)) of the same compound?
A: 91 % of control

Q: What about the T/C (dose: 25.0 mg/kg/injection, schedule: Q01DX009 (ip), vehicle: Klucel (hydroxypropylcellulose) (HPC)) of the same compound?
A: 90 % of control

Q: COc1ccc(NC(=O)N2CC3CCN2CC3)cc1 was tested. Which T/C [1] did it give?
A: 99 % of control

Q: And the T/C [2]?
A: 93 % of control

Q: And the T/C [3]?
A: 90 % of control

Q: Which T/C (dose: 1.0 mg/kg/injection, schedule: Q01DX005 (ip), vehicle: Klucel (hydroxypropylcellulose) (HPC)) does the source give for CNC(=O)O[C@H]1C(=O)O[C@@H]2C[C@H]3C(C)=C(O)C(=O)C[C@]3(C)[C@H]3[C@@H](O)[C@H](O)[C@@]4(C(=O)OC)OC[C@]32[C@@H]14 here?
A: 105 % of control

Q: What about the T/C (dose: 2.0 mg/kg/injection, schedule: Q01DX005 (ip), vehicle: Klucel (hydroxypropylcellulose) (HPC)) of the same compound?
A: 105 % of control

Q: What about the T/C (dose: 4.0 mg/kg/injection, schedule: Q01DX005 (ip), vehicle: Klucel (hydroxypropylcellulose) (HPC)) of the same compound?
A: 102 % of control and 108 % of control

Q: And the T/C (dose: 8.0 mg/kg/injection, schedule: Q01DX005 (ip), vehicle: Klucel (hydroxypropylcellulose) (HPC))?
A: 102 % of control

Q: What about the T/C (dose: 16.0 mg/kg/injection, schedule: Q01DX005 (ip), vehicle: Klucel (hydroxypropylcellulose) (HPC)) of the same compound?
A: 101 % of control

Q: And the T/C (dose: 125.0 micrograms/kg/injection, schedule: Q01DX005 (ip), vehicle: Klucel (hydroxypropylcellulose) (HPC))?
A: 103 % of control

Q: What about the T/C (dose: 250.0 micrograms/kg/injection, schedule: Q01DX005 (ip), vehicle: Klucel (hydroxypropylcellulose) (HPC)) of the same compound?
A: 95 % of control

Q: What about the T/C (dose: 500.0 micrograms/kg/injection, schedule: Q01DX005 (ip), vehicle: Klucel (hydroxypropylcellulose) (HPC)) of the same compound?
A: 95 % of control

Q: What about the T/C (dose: 1000.0 micrograms/kg/injection, schedule: Q01DX005 (ip), vehicle: Klucel (hydroxypropylcellulose) (HPC)) of the same compound?
A: 99 % of control

Q: Which T/C [1] does the source give for CCC(COC(=O)c1ccc(N(CC)CC)cc1)NC1CCCCC1 (stereo not given) here?
A: 111 % of control

Q: What about the T/C [2] of the same compound?
A: 90 % of control

Q: CCn1c(=O)c2[nH]c(=S)[nH]c2n(CC)c1=O was tested. Which T/C (dose: 16.0 mg/kg/injection, schedule: Q01DX009 (ip), vehicle: Klucel (hydroxypropylcellulose) (HPC)) did it give?
A: 108 % of control

Q: What about the T/C (dose: 32.0 mg/kg/injection, schedule: Q01DX009 (ip), vehicle: Klucel (hydroxypropylcellulose) (HPC)) of the same compound?
A: 104 % of control

Q: And the T/C [4]?
A: 105 % of control

Q: And the T/C (dose: 64.0 mg/kg/injection, schedule: Q01DX009 (ip), vehicle: Klucel (hydroxypropylcellulose) (HPC))?
A: 107 % of control

Q: What about the T/C [5] of the same compound?
A: 95 % of control

Q: And the T/C [6]?
A: 102 % of control

Q: Cc1cc(C)n(-c2ccnc(-n3nc(C)cc3C)n2)n1 was tested. Which T/C (dose: 100.0 mg/kg/injection, schedule: Q04DX003 (ip), vehicle: saline) did it give?
A: 104 % of control

Q: What about the T/C (dose: 200.0 mg/kg/injection, schedule: Q04DX003 (ip), vehicle: saline) of the same compound?
A: 114 % of control

Q: And the T/C (dose: 400.0 mg/kg/injection, schedule: Q04DX003 (ip), vehicle: saline)?
A: 101 % of control

Q: What does the source list for C=C(C)C(=O)OC1CC2OC2(C)CC(OC(=O)C(=C)C)C2C(=C)C(=O)OC2/C=C\1C (stereo not given)?
A: T/C (dose: 5.0 mg/kg/injection, schedule: Q01DX009 (ip), vehicle: saline with Tween-80): 90 % of control; T/C (dose: 10.0 mg/kg/injection, schedule: Q01DX009 (ip), vehicle: saline with Tween-80): 90 % of control; T/C (dose: 20.0 mg/kg/injection, schedule: Q01DX009 (ip), vehicle: saline with Tween-80): 100 % of control; T/C (dose: 40.0 mg/kg/injection, schedule: Q01DX009 (ip), vehicle: saline with Tween-80): 86 % of control

Q: How did the T/C (dose: 11.0 mg/kg/injection, schedule: Q01DX009 (ip), vehicle: saline with Tween-80) turn out when COc1cc(C2c3cc4c(cc3C(O)C(CO)C2CO)OCO4)cc(OC)c1OC (stereo not given) was run?
A: 118 % of control

Q: What about the T/C [7] of the same compound?
A: 115 % of control

Q: And the T/C (dose: 37.5 mg/kg/injection, schedule: Q01DX009 (ip), vehicle: saline with Tween-80)?
A: 150 % of control

Q: And the T/C [8]?
A: 103 % of control

Q: And the T/C [9]?
A: 97 % of control

Q: What about the T/C (dose: 100.0 mg/kg/injection, schedule: Q01DX009 (ip), vehicle: saline sonified) of the same compound?
A: 165 % of control

Q: And the T/C [10]?
A: 155 % of control

Q: And the T/C [11]?
A: 94 % of control

Q: And the T/C (dose: 200.0 mg/kg/injection, schedule: Q01DX009 (ip), vehicle: saline sonified)?
A: 195 % of control

Q: And the T/C (dose: 264.0 mg/kg/injection, schedule: Q04DX003 (ip), vehicle: saline with Tween-80)?
A: 154 % of control

Q: And the T/C (dose: 400.0 mg/kg/injection, schedule: Q01DX009 (ip), vehicle: saline sonified)?
A: 95 % of control

Q: What about the T/C [12] of the same compound?
A: 163 % of control

Q: How did the T/C [7] turn out when Cc1ccc2cc3c(ccc4ccccc43)c3c2c1CC3 was run?
A: 113 % of control

Q: What about the T/C (dose: 33.0 mg/kg/injection, schedule: Q01DX009 (ip), vehicle: saline with Tween-80) of the same compound?
A: 121 % of control

Q: And the T/C [10]?
A: 150 % of control

Q: What about the T/C (dose: 300.0 mg/kg/injection, schedule: Q04DX003 (ip), vehicle: saline with Tween-80) of the same compound?
A: 152 % of control

Q: What about the T/C [12] of the same compound?
A: 172 % of control

Q: COc1cc(C2c3cc(OC(C)=O)c(OC)cc3CC3C(=O)OCC32)ccc1OC(C)=O (stereo not given) was tested. Which T/C [8] did it give?
A: 95 % of control

Q: What about the T/C [9] of the same compound?
A: 93 % of control

Q: What about the T/C [11] of the same compound?
A: 90 % of control

Q: Which results are given for O=C(CC(=O)CC(O)(C(F)(F)F)C(F)(F)F)CC(O)(C(F)(F)F)C(F)(F)F?
A: T/C (dose: 1.25 mg/kg/injection, schedule: Q04DX003 (ip), vehicle: saline): 100 % of control; T/C (dose: 2.5 mg/kg/injection, schedule: Q04DX003 (ip), vehicle: saline): 95 % of control

Q: Which results are given for S=C1NCCNC(=S)SSSS1?
A: T/C (dose: 50.0 mg/kg/injection, schedule: Q01DX005 (ip), vehicle: saline with Tween-80): 107 % of control; T/C (dose: 100.0 mg/kg/injection, schedule: Q01DX005 (ip), vehicle: saline with Tween-80): 114 % of control; T/C (dose: 200.0 mg/kg/injection, schedule: Q01DX005 (ip), vehicle: saline with Tween-80): 113 % of control

Q: c1ccc2c(c1)cc1c3nncn3ncn21 was tested. Which T/C [13] did it give?
A: 100 % of control

Q: What about the T/C (dose: 25.0 mg/kg/injection, schedule: Q01DX009 (ip), vehicle: saline with Tween-80) of the same compound?
A: 92 % of control

Q: And the T/C [14]?
A: 93 % of control

Q: What does the source list for O=C(COc1ccc(Cl)cc1Cl)N1CCNC1=O?
A: T/C [4]: 103 % of control; T/C [5]: 98 % of control; T/C [6]: 97 % of control

Q: With CN(C)CCC(/C=C/c1ccco1)=N\NC(=S)Nc1ccc(Cl)cc1 as the compound, how does the T/C (dose: 100.0 mg/kg/injection, schedule: Q01DX001 (ip), vehicle: saline with Tween-80) read?
A: 97 % of control

Q: What about the T/C (dose: 200.0 mg/kg/injection, schedule: Q01DX001 (ip), vehicle: saline with Tween-80) of the same compound?
A: 101 % of control

Q: And the T/C (dose: 400.0 mg/kg/injection, schedule: Q01DX001 (ip), vehicle: saline with Tween-80)?
A: 103 % of control

Q: With O=C1CSC(c2ccc(Cl)c([N+](=O)[O-])c2)N1c1nncs1 (stereo not given) as the compound, how does the T/C (dose: 60.0 mg/kg/injection, schedule: Q01DX005 (ip), vehicle: Klucel (hydroxypropylcellulose) (HPC)) read?
A: 99 % of control

Q: And the T/C (dose: 120.0 mg/kg/injection, schedule: Q01DX005 (ip), vehicle: Klucel (hydroxypropylcellulose) (HPC))?
A: 100 % of control

Q: What about the T/C (dose: 240.0 mg/kg/injection, schedule: Q01DX005 (ip), vehicle: Klucel (hydroxypropylcellulose) (HPC)) of the same compound?
A: 97 % of control

Q: With O=C1CCC(Cc2ccc(C(F)(F)F)cc2)C(=O)N1 (stereo not given) as the compound, how does the T/C [1] read?
A: 102 % of control

Q: And the T/C [2]?
A: 95 % of control

Q: And the T/C [3]?
A: 98 % of control

Q: For COc1cccc2c1C(=O)c1c(O)c3c(c(O)c1C2=O)C[C@@](O)(/C(C)=N\NC(N)=O)C[C@@H]3OC1CC(N)C(O)C(C)O1 (stereo not given in full), which T/C (dose: 1.56 mg/kg/injection, schedule: Q01DX009 (ip), vehicle: saline) is on record?
A: 95 % of control

Q: How did the T/C (dose: 100.0 mg/kg/injection, schedule: Q04DX003 (ip), vehicle: saline + Tween-80 + alcohol) turn out when C=CN=NNc1ccc(OC)cc1 was run?
A: 116 % of control

Q: What about the T/C (dose: 200.0 mg/kg/injection, schedule: Q04DX003 (ip), vehicle: saline + Tween-80 + alcohol) of the same compound?
A: 106 % of control

Q: With Cc1ccc2c(/C=C/c3ccc(N(C)C)cc3)ccnc2c1C as the compound, how does the T/C [13] read?
A: 123 % of control

Q: What about the T/C [14] of the same compound?
A: 150 % of control

Q: What about the T/C (dose: 100.0 mg/kg/injection, schedule: Q01DX009 (ip), vehicle: saline with Tween-80) of the same compound?
A: 99 % of control

Q: For CN(C)c1ccc(/C=C2\C=Cc3ccccc32)cc1, which T/C [10] is on record?
A: 109 % of control

Q: What about the T/C (dose: 200.0 mg/kg/injection, schedule: Q04DX003 (ip), vehicle: saline with Tween-80) of the same compound?
A: 90 % of control

Q: And the T/C [12]?
A: 90 % of control
